Here are results for three substances from patent US20120264231A1, “ASSAY FOR ORAI CALCIUM CHANNEL REGULATORS” (IMMUNE DISEASE INSTITUTE, INC., priority 2009, published 2012).

This assay deals with STIM1−/− T cells. As to the kind of experiment: Single-cell [Ca2+]i measurement in STIM1−/− T cells expressing STIM1 fragments. Format: cell-based, murine. Particulars: for constitutive Ca^2+ influx: retroviral expression, Fura-2. An excerpt: To determine the competence of STIM 1 fragments to activate ORAI1 in mammalian cells, Myc-tagged STIM 1^CT and its truncated variants were introduced by retroviral expression into STIM1−/− T cells, and their ability to elevate resting Ca^2+ permeability was examined in cells loaded with Fura-2. As in human Jurkat T cells (Huang, G. N., et al., (2006); supra), expression of the soluble cytoplasmic portion of STIM 1 activated Ca^2+ influx into STIM1−/− murine T cells (FIG. 11). Elevated Ca^2+ permeability was evident in a marked increase in cytoplasmic [Ca^2+] on changing to medium containing 2 mM Ca^2+ after brief exposure to nominally Ca^2+-free medium. […] Retroviral vector alone conferred no constitutive influx above the level in control cells, as previously shown (Oh-hora, M., et al., (2008), supra).
Retroviral expression plasmids encoding mouse STIM 1 and its cytoplasmic fragments (residues 233-685, 233-600, 233-498, or 233-463) were constructed by inserting the corresponding coding sequences between the XhoI and EcoRI sites of the vector pMSCV-CITE-eGFP-PGK-Puro (Clontech), which allows for coexpression of the inserted gene, GFP, and a puromycin resistance gene. GFP expression was used to estimate transducing efficiency.
Primary CD4^+ cells were purified from spleen and lymph nodes of Stim1^f1/f1 CD4-Cre^+ mice using Dynal magnetic beads (Invitrogen) following the manufacturer's instructions. Purified T cells were stimulated with anti-CD3 and anti-CD28, transduced with retroviruses obtained from transfected Phoenix packaging cells, and further expanded in IL-2-containing medium as described (Oh-hora, M., et al., Nat Immunol 9, 432-443 (2008); Ansel, K. M., et al., Nat Immunol 5, 1251-1259 (2004)). The transduction efficiency (>80%) was estimated by evaluating GFP expression using flow cytometry.
Retrovirus-transduced CD4^+ cells isolated from Stim1^f1/f1 CD4-Cre^+ mice were incubated overnight in IL-2 free RPMI medium and loaded with 2 μM Fura-2-acetoxylmethyl ester (Invitrogen) for 45 min at ambient temperature in the dark. T cells were further attached to coverslips precoated with 0.01% poly-L-lysine, mounted to a RC-20 closed-bath flow chamber (Warner Instrument), and bathed in Ringer's solution (155 mM NaCl, 4.5 mM KCl, 2 mM CaCl2, 1 mM MgCl2, 10 mM D-glucose and 5 mM HEPES, pH 7.4). For nominally Ca^2+-free Ringer's solution CaCl2 was replaced with MgCl2. After 5 minutes of equilibration in Ringer's solution, [Ca^2+]i measurement commenced with ˜3 min perfusion of T cells with Ca^2+-free Ringer's solution at ambient temperature, followed by perfusion of Ringer's solution containing 2 mM CaCl2. The cycle was repeated once with final addition of Ringer's solution supplemented with 2 μM LaCl3 to block Ca^2+ flux. Images were acquired using a Zeiss Axiovert S200 epifluorescence microscope and OpenLab imaging analysis software (Improvision). The fluorescence data (F340 nm/F380 nm) were collected every 4 s and analyzed as described (Oh-hora, M., et al., (2008), supra; Feske, S., et al., Nature 441, 179-185 (2006)). In each experiment, for each experimental condition, 50-100 GFP-positive CD4+ T cells were analyzed.

As for “STIM1 (233-463): truncated mouse STIM1 cytoplasmic fragment, residues 233-463, His-tagged recombinant protein”, the “constitutive Ca^2+ influx” value is “smaller but very clear constitutive Ca^2+ influx”.

Regarding “STIM1 (233-498): truncated mouse STIM1 cytoplasmic fragment, residues 233-498, His-tagged recombinant protein”, the “constitutive Ca^2+ influx” value is listed as “activated a prominent constitutive Ca^2+ influx”. In addition, for the setting “compared with STIM1^CT”, the “maximum levels of cytoplasmic Ca^2+” value is “somewhat less than with STIM1^CT” and the “rate of rise of cytoplasmic Ca^2+” value was “nearly comparable to the rate with STIM 1^CT”.

In the case of “STIM1^CT: cytoplasmic region of STIM1, mouse residues 233-685, His-tagged recombinant protein expressed in E coli”, the “steepest rise of cytoplasmic [Ca^2+]” value (on changing to medium containing 2 mM Ca^2+) is given as approximately 15 nM/s.
